Measurements taken from PubChem BioAssay (NCI).
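Growth conditions: 96-well plates. Treatment: test compound, 48 hours, 5 concentrations. Analysis: linear interpolation between bracketing concentrations; unreached endpoints set to highest concentration. TGI marks complete inhibition of growth.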

Assays:
Assay in all cases: NCI anticancer screen, dose series, 48 h
[1] = tested on: HS 578T breast
[2] = tested on: HCT-116 colon
[3] = tested on: MCF7 breast
[4] = tested on: SK-MEL-28 melanoma
[5] = tested on: BT-549 breast
[6] = tested on: IGROV1 ovarian
[7] = tested on: NCI/ADR-RES ovarian
[8] = tested on: KM12 colon
[9] = tested on: SK-MEL-5 melanoma
[10] = tested on: CAKI-1 renal
[11] = tested on: NCI-H522 lung
[12] = tested on: RXF 393 renal
[13] = tested on: NCI-H226 lung
[14] = tested on: MDA-MB-231 breast
[15] = tested on: A498 renal
[16] = tested on: TK-10 renal
[17] = tested on: NCI-H460 lung
[18] = tested on: PC-3 prostate
[19] = tested on: HL-60(TB) leukemia
[20] = tested on: COLO 205 colon
[21] = tested on: SR leukemia
[22] = tested on: 786-0 renal
[23] = tested on: NCI-H23 lung
[24] = tested on: SW-620 colon
[25] = tested on: OVCAR-5 ovarian
[26] = tested on: MOLT-4 leukemia
[27] = tested on: SNB-75 CNS
[28] = tested on: UACC-257 melanoma
[29] = tested on: LOX IMVI melanoma
[30] = tested on: HCC-2998 colon
[31] = tested on: MDA-N
[32] = tested on: EKVX NSCLC
[33] = tested on: UACC-62 melanoma
[34] = tested on: ACHN renal
[35] = tested on: OVCAR-3 ovarian
[36] = tested on: SF-295 CNS
[37] = tested on: U251 CNS
[38] = tested on: DU-145 prostate
[39] = tested on: OVCAR-8 ovarian
[40] = tested on: HOP-62 NSCLC
[41] = tested on: OVCAR-4 ovarian
[42] = tested on: RPMI-8226 leukemia
[43] = tested on: UO-31 renal
[44] = tested on: K-562 leukemia
[45] = tested on: MALME-3M melanoma
[46] = tested on: SF-268 CNS
[47] = tested on: T-47D breast
[48] = tested on: SN12C renal
[49] = tested on: MDA-MB-435
[50] = tested on: HT29 colon
[51] = tested on: SK-MEL-2 melanoma
[52] = tested on: HCT-15 colon
[53] = tested on: SNB-19 CNS
[54] = tested on: CCRF-CEM leukemia
[55] = tested on: HOP-92 NSCLC
[56] = tested on: M14 melanoma
[57] = tested on: SK-OV-3 ovarian
[58] = tested on: A549 NSCLC
[59] = tested on: SF-539 CNS

CN(C)C(=O)Oc1ccc[n+](C)c1 gave a TGI [1] greater than 100 µM, a TGI [2] greater than 100 µM and a TGI [3] greater than 100 µM. For the same molecule, the TGI [4] was greater than 100 µM, the TGI [5] was greater than 100 µM and the TGI [6] was greater than 100 µM. For the same molecule, the TGI [7] was greater than 100 µM, the TGI [8] was greater than 100 µM and the TGI [9] was greater than 100 µM. The TGI [10] was greater than 100 µM, the TGI [11] was greater than 100 µM and the TGI [12] was greater than 100 µM. The TGI [13] was greater than 100 µM, the TGI [14] was greater than 100 µM and the TGI [15] was greater than 100 µM. It also gave a TGI [16] greater than 100 µM, a TGI [17] greater than 100 µM and a TGI [18] greater than 100 µM. The TGI [19] was greater than 100 µM, the TGI [20] was greater than 100 µM and the TGI [21] was greater than 100 µM. For the same molecule, the TGI [22] was greater than 100 µM, the TGI [23] was greater than 100 µM and the TGI [24] was greater than 100 µM. It also gave a TGI [25] greater than 100 µM, a TGI [26] greater than 100 µM and a TGI [27] greater than 100 µM. The TGI [28] was greater than 100 µM, the TGI [29] was greater than 100 µM and the TGI [30] was greater than 100 µM. The TGI [31] was greater than 100 µM, the TGI [32] was greater than 100 µM and the TGI [33] was greater than 100 µM. It also gave a TGI [34] greater than 100 µM, a TGI [35] greater than 100 µM and a TGI [36] greater than 100 µM. It also gave a TGI [37] greater than 100 µM, a TGI [38] greater than 100 µM and a TGI [39] greater than 100 µM. It also gave a TGI [40] greater than 100 µM, a TGI [41] greater than 100 µM and a TGI [42] greater than 100 µM. It also gave a TGI [43] greater than 100 µM, a TGI [44] greater than 100 µM and a TGI [45] greater than 100 µM. The TGI [46] was greater than 100 µM, the TGI [47] was greater than 100 µM and the TGI [48] was greater than 100 µM. For the same molecule, the TGI [49] was greater than 100 µM, the TGI [50] was greater than 100 µM and the TGI [51] was greater than 100 µM. It also gave a TGI [52] greater than 100 µM and a TGI [53] greater than 100 µM.

O=C1CNN=C(CSc2nc3ccc(I)cc3c(=O)n2Cc2ccccc2)N1 was tested, and the TGI [1] was greater than 100 µM, the TGI [2] was 50.7 µM and the TGI [3] was greater than 100 µM. For the same molecule, the TGI [54] was 50.5 µM, the TGI [4] was 44.4 µM and the TGI [55] was 72 µM. It also gave a TGI [5] of 86.3 µM, a TGI [6] of 55.6 µM and a TGI [7] of 77.1 µM. The TGI [8] was 93.2 µM, the TGI [9] was 30.6 µM and the TGI [10] was 34.3 µM. For the same molecule, the TGI [11] was 68.6 µM, the TGI [13] was 42.4 µM and the TGI [14] was 38.9 µM. For the same molecule, the TGI [15] was 94.1 µM, the TGI [16] was 78.3 µM and the TGI [17] was greater than 100 µM. For the same molecule, the TGI [18] was 79.6 µM, the TGI [19] was 4.03 µM and the TGI [20] was 28.4 µM. It also gave a TGI [21] of 92.3 µM, a TGI [22] greater than 100 µM and a TGI [23] greater than 100 µM. The TGI [24] was greater than 100 µM, the TGI [56] was greater than 100 µM and the TGI [57] was greater than 100 µM. It also gave a TGI [25] greater than 100 µM, a TGI [26] greater than 100 µM and a TGI [27] of 35.8 µM. The TGI [28] was 70.7 µM, the TGI [29] was 33.4 µM and the TGI [30] was 81.7 µM. It also gave a TGI [31] of 87.2 µM, a TGI [32] greater than 100 µM and a TGI [33] of 32.6 µM. It also gave a TGI [34] of 31.6 µM, a TGI [35] of 45.1 µM and a TGI [36] of 59.7 µM. It also gave a TGI [37] of 52 µM, a TGI [38] of 53.4 µM and a TGI [39] of 94.7 µM. The TGI [40] was greater than 100 µM, the TGI [41] was greater than 100 µM and the TGI [42] was 91.9 µM. The TGI [43] was 4.37 µM, the TGI [44] was greater than 100 µM and the TGI [45] was 54.2 µM. It also gave a TGI [46] of 57.7 µM, a TGI [47] of 43.5 µM and a TGI [48] of 34.3 µM. The TGI [49] was 97.6 µM, the TGI [58] was greater than 100 µM and the TGI [50] was greater than 100 µM. The TGI [51] was 34.7 µM, the TGI [52] was greater than 100 µM and the TGI [59] was 58.3 µM. The TGI [53] was greater than 100 µM.
